Assay results reported in the supplement of paper PMC10702517.
± gives the standard deviation.

Key:
[1] = chemical recovery into PDMS from spiked human plasma; higher = better extraction; conditions: pooled human plasma, extraction method: PES with PDMS
[2] = chemical recovery by SPE of plasma after PDMS sampling; higher = better extraction; conditions: pooled human plasma, extraction method: HLB SPE of plasma after PES
[3] = chemical recovery from spiked human plasma; higher = better extraction; conditions: pooled human plasma
[4] = extraction method: SPE only (HLB 96-well)
[5] = extraction method: SPE only (HLB 96-well), PES comparison experiment
[6] = extraction method: solvent precipitation (ACN + hexane)
[7] = extraction method: PES+SPE (3 d PDMS equilibration then HLB SPE)
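Wherever chemical recovery by SPE of plasma after PDMS sampling is given: over 400 spiked chemicals quantified by LC-HRMS or GC-HRMS via internal standard calibration, recovery relative to spike mix added to unspiked plasma extract to correct matrix effects.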

Compound | chemical recovery into PDMS ([1]; equilibration time (d): 1) [%] | chemical recovery into PDMS ([1]; equilibration time (d): 3) [%] | chemical recovery into PDMS ([1]; equilibration time (d): 6) [%] | chemical recovery by SPE of plasma ([2]; equilibration time (d): 1) [%] | chemical recovery by SPE of plasma ([2]; equilibration time (d): 3) [%] | chemical recovery by SPE of plasma ([2]; equilibration time (d): 6) [%] | chemical recovery [3, 4] [%] | chemical recovery [3, 5] [%] | chemical recovery [3, 6] [%] | chemical recovery [3, 7] [%]
CCNc1nc(NC(C)(C)C)nc(SC)n1 [Terbutryn] | 21.7 ± 8.2 | 21.5 ± 6.8 | 22.9 ± 3.2 | 1.3 ± 0.11 | 1.01 ± 0.25 | 0.516 ± 0.03 | 46.2 ± 2.5 | 48.2 ± 6.7 | 68.8 ± 3.2 | 
CN1CCN(C)C1=O [1,3-Dimethyl-2-imidazolidinone] | 3.18 ± 2.2 | 2.57 ± 3 | 3.27 ± 3.2 | 4.06 ± 4.7 | 4.29 ± 3.7 | 8.78 ± 4.2 | 7.04 ± 5.9 | 13.6 ± 8.1 |  | 
CCNc1nc(Cl)nc(NC(C)(C)C)n1 [Terbuthylazine] | 37 ± 1 | 41.3 ± 3.5 | 41.4 ± 1.7 | 1.41 ± 0.15 | 1.28 ± 0.32 | 0.724 ± 0.021 | 61.8 ± 2.3 | 45.8 ± 8 | 69.5 ± 7.1 | 64.8 ± 10
O=C(Nc1ccccc1-c1ccc(Cl)cc1)c1cccnc1Cl [Boscalid] | 41.6 ± 1.9 | 45.5 ± 2.2 | 44.7 ± 0.64 | 4.82 ± 0.75 | 5.2 ± 0.48 | 3.13 ± 0.17 | 59.7 ± 2.4 | 48.2 ± 7.4 | 81.6 ± 1.8 | 63.9 ± 10
CCCN(CCC)c1c([N+](=O)[O-])cc(S(N)(=O)=O)cc1[N+](=O)[O-] [Oryzalin] | 6.21 ± 0.56 | 10 ± 0.76 | 11.1 ± 1.2 | 39.2 ± 5.2 | 33.9 ± 3 | 27.7 ± 1.7 |  | 49.6 ± 5.5 |  | 
Brc1ccc(Oc2c(Br)cc(Br)cc2Br)c(Br)c1 [BDE100] |  | 99.1 ± 13 | 95.9 ± 6 | 2.2 ± 2 | 1.42 ± 0.25 | 0.324 ± 0.56 | 3.57 ± 1.4 |  | 7.72 ± 0.68 | 67.4 ± 0.92
Cc1cccc(C)c1N(Cn1cccn1)C(=O)C[S+](C)[O-] (centres undefined) [Metazachlor BH 479-11] | 5.75 ± 0.43 | 9.79 ± 2.3 | 11.1 ± 1.1 | 59.7 ± 9 | 57.3 ± 4.7 | 49.7 ± 6.9 | 50.3 ± 0.97 | 51.8 ± 4.5 | 68.7 ± 3.1 | 46 ± 4.5
Nc1ccc(Cl)cc1 [4-Chloroaniline] | 6.69 ± 4.3 | 5.92 ± 5.1 | 5.47 ± 3.5 | 11.4 ± 2.3 | 14.6 ± 1.5 | 9.71 ± 1.7 | 16.4 ± 6.2 |  |  | 
CC[C@H]1CCC[C@H](O[C@H]2CC[C@H](N(C)C)[C@@H](C)O2)[C@@H](C)C(=O)C2=C[C@@H]3[C@@H](C=C[C@@H]4C[C@@H](O[C@@H]5O[C@@H](C)[C@H](OC)[C@@H](OC)[C@H]5OC)C[C@@H]34)[C@@H]2CC(=O)O1 [Spinosyn A] | 0.00824 ± 0.014 | 0.0193 ± 0.034 | 0.00695 ± 0.012 | 0.0715 ± 0.12 | 0.155 ± 0.14 | 0.0384 ± 0.0082 |  | 39.5 ± 10 | 71.7 ± 10 | 
Clc1ccc(-c2cc(Cl)c(Cl)cc2Cl)cc1Cl [PCB118] | 74.9 ± 4.3 |  |  | 2.43 ± 1.6 | 1.87 ± 0.24 | 1.71 ± 0.54 | 0.333 ± 0.1 | 3.8 ± 7.6 | 32 ± 1.2 | 
C[C@]12CCC(=O)C=C1[C@@H]1C[C@@H]1[C@H]1[C@@H]3[C@@H]4C[C@@H]4[C@@]4(CCC(=O)O4)[C@@]3(C)CC[C@@H]12 [Drospirenone] | 41.9 ± 2.5 | 45.7 ± 3 | 44.9 ± 1.4 | 3.88 ± 0.83 | 2.16 ± 0.41 | 1.04 ± 0.16 |  | 42.6 ± 8.3 |  | 
c1cc2ccc3cccc4ccc(c1)c2c34 [Pyrene] |  | 79.6 ± 17 | 77.8 ± 20 | 4.17 ± 2.2 | 5.06 ± 1.2 | 3.59 ± 0.37 | 19.5 ± 5.1 | 19.4 ± 2.8 |  | 
O=C(Nc1ccc(Cl)cc1)Nc1ccc(Cl)c(Cl)c1 [Triclocarban] | 5.9 ± 0.44 | 7.7 ± 0.6 | 8.27 ± 0.72 | 29.8 ± 8.2 | 28.2 ± 4.9 | 24.3 ± 4 | 35 ± 5 | 25.7 ± 4.4 | 55.4 ± 4.4 | 
O=S(=O)(O)c1ccc2[nH]c(-c3ccccc3)nc2c1 [Phenylbenzimidazole sulfonic acid] | 0.124 ± 0.24 |  |  | 42.2 ± 5.2 | 49 ± 1.8 | 45.8 ± 8.4 | 36.9 ± 3.3 | 52 ± 5.8 | 27.9 ± 3.1 | 43.2 ± 2.9
c1ccc2ncccc2c1 [Quinoline] | 8.77 ± 5.3 | 9.55 ± 7.5 | 4.43 ± 4.2 | 0.053 ± 0.092 | 0.00565 ± 0.0098 | 0.0105 ± 0.018 | 16.5 ± 4.6 |  |  | 
CCCNCCOc1c(Cl)cc(Cl)cc1Cl [Prochloraz BTS403-48] | 0.602 ± 0.13 | 0.604 ± 0.12 | 0.862 ± 0.22 | 0.247 ± 0.057 | 0.287 ± 0.11 | 0.165 ± 0.0069 | 47.1 ± 2 | 46.2 ± 5.1 | 71.2 ± 3 | 1.17 ± 0.37
CN1C(=O)CN=C(c2ccccc2)c2cc(Cl)ccc21 [Diazepam] | 34.5 ± 1.3 | 40.4 ± 3.4 | 39.3 ± 2 | 9.29 ± 2 | 6.7 ± 0.88 | 4.56 ± 0.4 | 56.2 ± 2.7 | 45.5 ± 6.9 | 85.2 ± 3.9 | 66.5 ± 10
Clc1ccc(Cl)c(-c2ccccc2Cl)c1 [PCB18] | 48.2 ± 2.5 | 50.3 ± 10 | 46.5 ± 10 | 0.716 ± 0.48 | 0.693 ± 0.67 | 0.249 ± 0.43 |  | 10 ± 1.9 |  | 
CC(=O)[C@@]1(O)CC[C@H]2[C@@H]3C[C@H](C)C4=CC(=O)C=C[C@]4(C)[C@@]3(F)[C@@H](O)C[C@@]21C [Fluorometholone] | 1.66 ± 0.4 | 3.75 ± 0.69 | 4.15 ± 0.95 | 45.1 ± 3.6 | 48.3 ± 3.2 | 40.3 ± 1.6 |  | 50.4 ± 7.2 |  | 
CCCC1COC(Cn2cncn2)(c2ccc(Cl)cc2Cl)O1 (centres undefined) [Propiconazole] | 38.2 ± 2.5 | 41 ± 3.7 | 40.7 ± 1.6 | 0.277 ± 0.24 | 0.384 ± 0.17 | 0.117 ± 0.052 |  | 43.1 ± 6.8 | 70.3 ± 3.4 | 
CCOCCN(C(=O)CCl)C(=C(C)C)c1ccccc1 [Pethoxamid] | 41 ± 2.5 | 43.5 ± 3.3 | 43.2 ± 1.5 |  | 0.187 ± 0.32 |  |  | 49.5 ± 6.9 | 56.3 ± 2.8 | 
O=P(c1ccccc1)(c1ccccc1)c1ccccc1 [Triphenylphosphine oxide] | 41 ± 1.5 | 44.6 ± 2.8 | 43.5 ± 1.5 | 8.28 ± 1.2 | 8.53 ± 0.92 | 6.26 ± 0.28 | 54.9 ± 1.4 | 51.6 ± 7.2 |  | 58.6 ± 6.1
O=C1Nc2ccc(Cl)cc2C(C#CC2CC2)(C(F)(F)F)O1 (centres undefined) [Efavirenz] | 44.7 ± 4.4 | 46.6 ± 4.5 | 47.4 ± 0.83 | 4.94 ± 4.3 | 6.96 ± 1.3 | 1.44 ± 2.5 | 27.1 ± 5.3 | 38.7 ± 7.3 | 41.4 ± 3.2 | 
Cc1nc2n(c(=O)c1CCN1CCC(c3noc4cc(F)ccc34)CC1)CCCC2 [Risperidone] | 0.00139 ± 0.0024 | 0.000765 ± 0.0018 |  | 4.71 ± 0.66 | 3.9 ± 0.9 | 2.32 ± 0.59 |  |  | 73.2 ± 3.6 | 
ClC1=C(Cl)[C@]2(Cl)[C@@H]3[C@@H]4C[C@@H]([C@H]5O[C@@H]45)[C@@H]3[C@@]1(Cl)C2(Cl)Cl [Dieldrin] |  |  | 97 ± 29 | 0.594 ± 1 |  |  | 0.809 ± 0.21 | 8.32 ± 1.5 | 22.5 ± 1.4 | 
